Tests used:
[1] = biological target: T1, CD38 NAD+ hydrolase activity in NH7-dCas9 cells (Jurkat clone) (Homo sapiens, UniProt P28907); assay: Fluorescence-based NAD+ hydrolase activity assay with human T cell line NH7-dCas9 cells-Jurkat clone (Assay 1); conditions: read-out: Assay 1 Arithmetic mean IC50
T1 construct: The assay utilized CD38 expressing NH7-dCas9 cells (Jurkat clone); host or cells: NH7-dCas9 cells (Jurkat clone)
T1 sequence (P28907 1-300): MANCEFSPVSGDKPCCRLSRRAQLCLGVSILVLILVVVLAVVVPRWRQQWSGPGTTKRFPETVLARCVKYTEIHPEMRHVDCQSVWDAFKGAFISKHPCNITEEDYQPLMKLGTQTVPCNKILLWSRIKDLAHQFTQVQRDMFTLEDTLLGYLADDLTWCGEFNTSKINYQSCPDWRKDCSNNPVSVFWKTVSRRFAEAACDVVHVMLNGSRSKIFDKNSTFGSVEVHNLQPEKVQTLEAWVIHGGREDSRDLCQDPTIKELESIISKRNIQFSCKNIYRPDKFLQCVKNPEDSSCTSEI
Experimental: For the modified assay, the performance validation criteria of the assay as a High Throughput Screening (HTS): Z-factor within the plate was greater than 0.89 (optimal HTS z-factor >0.5) and the Intra-plate, inter-plate and day to day variability (CV) was less than 20%.
NAD+ hydrolase activity of a human T cell line treated with test compounds was measured using a fluorescence-based assay. NH7-dCas9 cells (Jurkat clone) were provided by the Weissman Lab (UCSF 1700 4th St., Byers Hall, Room 403B, San Francisco, CA 94158-2330). Briefly, cells were centrifuged, resuspended in 44 μl PBS/10^6 cells and plated in a 96 well black plate (CORNING) at a density of 1×10^6 per well.
Each test compound was received in a powder state and dissolved in DMSO as a 25 mM stock solution. Each test compound was serially diluted in order to generate a dose-response curve. The dilution series of each test compound in DMSO was prepared at 50 times the concentrations to be assayed. Each test compound was diluted to generate a 5-fold dilution series of 8 concentrations from 20 μM to 0.256 nM in order to assay 8 final concentrations ranging from 400 nM to 25.6 pM. One μl of the 50× concentration compound series was added to each well of the plate containing 1×10^6 cells in PBS.
Each plate had the following intra plate controls: 3 wells containing cells treated with vehicle only (DMSO), 3 wells of cells treated with the reference compound 78c at a final concentration of 50 nM and 2 wells containing only PBS (used as a background value).
(§1) The reaction was started by adding nicotinamide 1,N^6-etheno-adenine dinucleotide (Sigma Aldrich) to reach a final concentration of 80 µM. The samples were excited at 321-15 nm, and the emission of fluorescence was measured at 410-20 nm at 37° C. every minute for 1 hr in a Clariostar® microplate reader (BMG LABTECH). NAD+ hydrolase activity was calculated as the slope of the linear portion of the fluorescence-time curve using the MARS data analysis software (BMG LABTECH). The data were uploaded in the Collaborative Drug Design (CDD) Software and for each compound the IC50 was calculated by the software. Each compound was tested in 3 independent experiments on 3 separate days to establish the reproducibility of the results. For each plate, the z-factor was also calculated as a plate quality using the CDD software.

[2] = biological target: T2, recombinant human CD38 Protein (Homo sapiens, UniProt P28907); assay: Fluorescence-based NAD+ hydrolase activity assay with human recombinant CD38 protein (Assay 3); assay type: biochemical; conditions: read-out: Assay 3 Arithmetic mean IC50
T2 construct: purchased R&D System
T2 sequence (P28907 1-300): T1 sequence (P28907 1-300)
Experimental: This protocol was modified from the following references (Muller et al. (1983); (Schultz et al. (2018); (Matalonga et al. (2017); and de Oliveira et al. (2018), supra.
NAD+ hydrolase activity of the human recombinant CD38 protein treated with test compounds was measured using a fluorescence-based assay. Briefly, recombinant human CD38 Protein (R&D System) was resuspended in 44 μl/well of Sucrose-Tris Buffer (Sucrose 0.25 M, Tris pH 7.4 40 mM) and plated in a 96-well black plate (CORNING) at a density of 10 ng/well.
Each test compound was received in a powder state and dissolved in DMSO as a 25 mM stock solution. Each test compound was serially diluted in order to generate a dose-response curve. The dilution series of each test compound in DMSO was prepared at 50× the concentrations to be assayed. Each test compound was diluted to generate a 5-fold dilution series of 8 concentrations from 20 μM to 0.256 nM in order to assay 8 final concentrations ranging from ranging from 400 nM to 25.6 pM. One μl of the 50× concentration compound series was added to each well of the plate containing 10 ng protein in Sucrose-Tris buffer.
as §1, with “started” for “started by”, “nm” for “nm,”, “Each compound was tested in 3 independent experiments on 3 separate days to establish the reproducibility of the results.” left out

IC50 [1] [nM]	IC50 [2] [nM]	Compound
1 to 50	1 to 50	COc1cc(C(=O)Nc2cccnc2)nc(-n2ccnc2)c1 [Compound 36]
< 1	< 1	COc1cc(C(=O)Nc2ccnc(C(F)(F)F)c2)nc(-n2ccnc2)n1 [Compound 37, 2-(1H-imidazol-1-yl)-6-methoxy-N-(2-(trifluoromethyl)pyridin-4-yl)pyrimidine-4-carboxamide]
< 1	< 1	CCOc1cc(C(=O)Nc2ccnc(C(F)(F)F)c2)nc(-n2ccnc2)n1 [Compound 38]
< 1	1 to 50	Cn1cncc1-c1cccc(C(=O)Nc2ccc(C(F)(F)F)nc2)n1 [Compound 43]
< 1	1 to 50	Cc1cc(C(=O)Nc2ccncc2)nc(-c2nccn2C)c1 [Compound 45]
1 to 50	1 to 50	Cn1ccnc1-c1cccc(C(=O)Nc2cccnc2)n1 [Compound 48]
< 1	1 to 50	Cc1cc(C(=O)Nc2cccnc2)nc(-n2ccnc2)c1 [Compound 53]
< 1	< 1	Cc1cc(C(=O)Nc2ccnc(C(N)=O)c2)nc(-n2ccnc2)c1 [Compound 55]
< 1	1 to 50	CNC(=O)c1cc(NC(=O)c2cc(C)cc(-n3ccnc3)n2)ccn1 [Compound 56]
1 to 50	1 to 50	Cc1ccc(-n2ccnc2)nc1C(=O)Nc1cccnc1 [Compound 59, 6-(1H-imidazol-1-yl)-3-methyl-N-(pyridin-3-yl)picolinamide]
1 to 50	1 to 50	O=C(Nc1cccnc1)c1nc(-n2ccnc2)ccc1F [Compound 62]
< 1	1 to 50	Nc1cc(C(=O)Nc2cccnc2)nc(-n2ccnc2)c1 [Compound 67]

The remaining lines, values behind:

Compound	IC50 [1] [nM]	IC50 [2] [nM]
COc1cc(C(=O)Nc2ccnc(C(F)(F)F)c2)nc(-n2ccnc2)c1 [Compound 35, 6-(1H-imidazol-1-yl)-4-methoxy-N-(2-(trifluoromethyl)pyridin-4-yl)picolinamide]	< 1	1 to 50
COCCOc1cc(C(=O)Nc2ccnc(C(F)(F)F)c2)nc(-n2ccnc2)n1 [Compound 39, 2-(1H-imidazol-1-yl)-6-(2-methoxyethoxy)-N-(2-(trifluoromethyl)pyridin-4-yl)pyrimidine-4-carboxamide]	< 1	< 1
Cn1cncc1-c1cccc(C(=O)Nc2cccnc2)n1 [Compound 42, 6-(1-methyl-1H-imidazol-5-yl)-N-(pyridin-3-yl)picolinamide]	1 to 50	1 to 50
Cn1ccnc1-c1cccc(C(=O)Nc2ccc(C(F)(F)F)nc2)n1 [Compound 47]	< 1	1 to 50
Cc1cc(C(=O)Nc2cccnc2)nc(-n2ccnc2)n1 [Compound 49, 2-(1H-imidazol-1-yl)-6-methyl-N-(pyridin-3-yl)pyrimidine-4-carboxamide]	< 1	< 1
Cc1cc(C(=O)Nc2ccncc2)nc(-n2ccnc2)n1 [Compound 50]	< 1	< 1
Cc1cc(C(=O)Nc2ccncc2)nc(-n2ccnc2)c1 [Compound 52, 6-(1H-imidazol-1-yl)-4-methyl-N-(pyridin-4-yl)picolinamide]	< 1	1 to 50
Cc1cc(C(=O)Nc2ccc(C(N)=O)nc2)nc(-n2ccnc2)c1 [Compound 54, N-(6-carbamoylpyridin-3-yl)-6-(1H-imidazol-1-yl)-4-methylpicolinamide]	< 1	1 to 50
CNC(=O)c1ccc(NC(=O)c2cc(C)cc(-n3ccnc3)n2)cn1 [Compound 57]	< 1	< 1
O=C(Nc1cccnc1)c1ccc(F)c(-n2ccnc2)n1 [Compound 61]	1 to 50	1 to 50
